Data taken from patent US10307418B2, “Azole pharmaceutical formulations for parenteral administration and methods for preparing and using the same as treatment of diseases sensitive to azole compounds” (Platform Brightworks Two, Ltd., priority 2010, dated 2019).
Values after ≈ are worked out from the molar mass of the structure shown. Values joined by “and” are separate entries in the source; they are usually repeats but may differ in a detail not shown here. Equal values may be shown once. Read-outs that look alike come from different tables or passages of the source.

Key:
[1] = Plasma pharmacology after IV injection in mice
Protocol: (§1) Swiss Webster mice were used for pharmacokinetic studies of ITZA and its analogs. The dilation of the vein was accomplished by warming up the mice using a heat lamp. […] Mice were allowed to recover and blood samples were obtained through cardiac puncture under general anesthesia with Isoflurane/oxygen by vaporizer at various time points. Plasma was obtained by centrifugation of blood sample at 3,200 rpm for 5 min. at 4° C. Plasma proteins were precipitated by adding acetonitrile (twice the volume of plasma). The mixture was vortexed for 30 seconds and centrifuged for 5 min. at 14,000 rpm. The supernatant was saved and was injected into the HPLC to determine the respective drug concentrations.
(§2) Unless specified, the analogous experiments were performed using POSA as an alternative to ITZA; Swiss Webster mice of both sexes with a body weight of 25-30 g were used for the in vivo pharmacology experiments (Harlan-Sprague-Dawley, Houston, Tex.). The animals were allowed a minimum of 7 days after arrival to accommodate to the new environment and allowed free access to commercial feed and tap water prior to and during the experimentation period. The animals were housed in an Association for the Assessment and Accreditation of Laboratory Animal Care International (AAALAC)-approved facility that meets the requirements of the USDA, NIH, and DHHS.
(§3) The ITZA dose of 5 mg/kg BW was determined to be a suitable test dose that could be administered to the mice as a slow (3-4 min) IV bolus injection without requiring sedation, but could be performed with only minimal physical restraint of the animals in a standard funnel-type cage.
(§4) The ITZA was formulated in the H3 solvent system described above as the preferred solvent to a stock concentration of 4-5 mg/mL and then diluted with NS (ratio 1:1) so the intended dose (5.0 mg/kg BW) could be injected in a tail vein in a total volume of approximately 100 μL. […] No sedative premedication was used for the mice in this experiment to avoid the possible induction of microsomal liver enzymes that could modify ITZA metabolism. Thus, the animals were unanesthetized, being only physically restrained during and immediately following the drug injection.
(§5) Blood samples (0.5-1.0 mL) were drawn through cardiac puncture into heparinized tubes at selected time points prior to the drug infusion (“blank”), and from 5 min to 1 hour after drug injection for determination of ITZA concentrations, and for 5 min to about 7 hrs in the POSA experiment. The mice were exposed to 2% -4% isoflurane for general anesthesia. Blood samples were obtained through cardiac puncture and immediately deposited in heparinized microcentrifuge tubes.

[2] = cited from earlier work
[3] = Stability of ITZA/POSA in solvent vehicles (HPLC); format: physicochemical; design: POSA concentration: unit: mg/mL; conditions: for POSA concentration: single determination
[4] = Maximum solubility of ITZA and azole analogues in solvents (HPLC); format: physicochemical; conditions: for solubility at 30 min: organic solvent or mixture, thermodynamic from solid
Protocol: ITZA and its analogues were dissolved in various solvents incubated at 37° C. for 30 minutes, cooled down to room temperature, centrifuged at 14,000 rpm for 1 min. The supernatant was analyzed using HPLC to determine the maximum solubility of ITZA and its azole analogues.
In a first step the maximum ITZA solubility in various single solvents was determined. To this end, ITZA and its analogs were dissolved in various solvents, incubated at 37° C. for 30 minutes, cooled down to room temperature, centrifuged at 14,000 rpm for 1 min. The supernatant was analyzed using HPLC to determine the maximum solubility of the respective agent.
The solubility of ITZA was determined in several individual vehicles. Briefly, a known amount of ITZA drug, formulated as a powder (Sigma Inc., St Louis, Mo.), was equilibrated in the respective solvent at RT over 1-4 hours. An aliquot was removed, filtered, and prepared for HPLC to determine maximum solubility at room temperature. Based on the ITZA solubility in each vehicle, different solvents were mixed according to the cosolvency principle in an attempt to arrive at an enhanced stable solubility. […] The stock formulation was then diluted with a final diluent, i.e. NS or D5W or DlOW, to yield a stable use-formulation. The desired range of the final use-formulation was between 1 and 5 mg/mL, as it would result in a final volume that could be safely and conveniently infused intravascularly.
An excess of ITZA as a powder was added to a multitude of chemical solvents (Table 1) at RT. Each mixture was intermittently vortexed, placed in a dark environment and checked visually for up to 4 hours for evidence of solubilization. Following centrifugation to remove solid particles, small samples were withdrawn after consecutive time intervals and the ITZA concentration was determined by HPLC as described.

[5] = in vivo; conditions: both, Swiss Webster, mouse, plasma, iv, 5 mg/kg
Protocol: as §1, §2, §3, §4, §5

[6] = POSA in H3G/5% Dextrose., 24 hr

## CC[C@@H]([C@H](C)O)n1ncn(-c2ccc(N3CCN(c4ccc(OC[C@@H]5CO[C@@](Cn6cncn6)(c6ccc(F)cc6F)C5)cc4)CC3)cc2)c1=O [POSA, posaconazole]
[1]; 5.0 mg/kg BW, slow injection over 3-4 min
  tolerability of IV injection (in words): well accepted
[1]; 5 mg/kg IV
  apparent in vivo half-life: 6 to 7 h
[1]; IV dose of 5 mg/kg
  time plasma concentrations remain in the fungi-toxic range: in excess of one hour
[1]; IV injection of 5 mg/kg over 4 min
  peak concentration (plasma): 3.2 to 3.3 µg/mL
[2]; literature (Ref 24, 32, 42, 45)
  known plasma half-life: 25 to 35 h
[2]; oral drug, literature
  half-life after oral administration: 15 to 30 h
[3]; POSA in H3G, 0 hr
  % of 0 hr: 100%
  average: 3.70 mg/mL
  POSA concentration: 3.76 and 3.69 and 3.66
[3]; POSA in H3G, 2 hr
  % of 0 hr: 102%
  average: 3.78 mg/mL
  POSA concentration: 3.93 and 3.73 and 3.67
[3]; POSA in H3G, 4 hr
  % of 0 hr: 114%
  average: 4.23 mg/mL
  POSA concentration: 3.98 and 4.33 and 4.37
[3]; POSA in H3G, 6 hr
  % of 0 hr: 114%
  average: 4.23 mg/mL
  POSA concentration: 3.98 and 4.33 and 4.37
[3]; POSA in H3G, 8 hr
  % of 0 hr: 97%
  average: 3.57 mg/mL
  POSA concentration: 3.68 and 3.47 and 3.57
[3]; POSA in H3G, 24 hr
  % of 0 hr: 99%
  average: 3.65 mg/mL
  POSA concentration: 3.73 and 3.52 and 3.70
[3]; POSA in H3G/5% Dextrose., 0 hr
  % of 0 hr: 100%
  POSA concentration: 1.76 and 1.68
[3]; POSA in H3G/5% Dextrose., 2 hr
  % of 0 hr: 109%
  POSA concentration: 1.84 and 1.81 and 2.02
[3]; POSA in H3G/5% Dextrose., 4 hr
  % of 0 hr: 113%
  POSA concentration: 1.92 and 1.91 and 2.03
[3]; POSA in H3G/5% Dextrose., 6 hr
  % of 0 hr: 109%
  POSA concentration: 1.75 and 1.93 and 2.01
[3]; POSA in H3G/5% Dextrose., 8 hr
  % of 0 hr: 106%
  POSA concentration: 1.71 and 1.89 and 1.92
[3]; [6]
  % of 0 hr: 105%
  POSA concentration: 1.78 and 1.80 and 1.87
[3]; POSA in H3d, 0 hr
  % of 0 hr: 100%
  average: 3.78 mg/mL
  POSA concentration: 3.82 and 3.75 and 3.78
[3]; POSA in H3d, 2 hr
  % of 0 hr: 100%
  average: 3.79 mg/mL
  POSA concentration: 3.67 and 3.81 and 3.89
[3]; POSA in H3d, 4 hr
  % of 0 hr: 112%
  average: 4.24 mg/mL
  POSA concentration: 4.00 and 4.15 and 4.56
[3]; POSA in H3d, 6 hr
  % of 0 hr: 118%
  average: 4.45 mg/mL
  POSA concentration: 4.20 and 4.32 and 4.82
[3]; POSA in H3d, 8 hr
  % of 0 hr: 106%
  average: 3.99 mg/mL
  POSA concentration: 4.18 and 3.77 and 4.03
[3]; POSA in H3d, 24 hr
  % of 0 hr: 101%
  average: 3.83 mg/mL
  POSA concentration: 3.81 and 3.75 and 3.92
[3]; POSA in H3d/5% Dextrose, 0 hr
  % of 0 hr: 100%
  POSA concentration: 1.75 and 1.77 and 1.81
[3]; POSA in H3d/5% Dextrose, 2 hr
  % of 0 hr: 100%
  POSA concentration: 1.77 and 1.74 and 1.83
[3]; POSA in H3d/5% Dextrose, 4 hr
  % of 0 hr: 111%
  POSA concentration: 1.88 and 1.81 and 2.20
[3]; POSA in H3d/5% Dextrose, 6 hr
  % of 0 hr: 109%
  POSA concentration: 1.95 and 1.93 and 1.94
[3]; POSA in H3d/5% Dextrose, 8 hr
  % of 0 hr: 102%
  POSA concentration: 1.86 and 1.68 and 1.90
[3]; POSA in H3d/5% Dextrose, 24 hr
  % of 0 hr: 103%
  POSA concentration: 1.78 and 1.79 and 1.93
[4]; solvent H3D (no benzyl alcohol), solvent H3D (no benzyl alcohol), single determination, read-out: Azole solubility, [Drug] mg/mL
  solubility at 30 min: 33.8 mg/mL (≈ 48.2 mM)
[4]; solvent H3D (no benzyl alcohol), solvent H3D (no benzyl alcohol), read-out: Azole solubility, Average mg/mL
  solubility at 30 min: 35.3 mg/mL (≈ 50.4 mM)
[4]; solvent H3D (no benzyl alcohol), single determination
  Azole solubility, [Drug] mg/mL: 35.08 mg/mL and 37.14 mg/mL
[4]; solvent H3G (no benzyl alcohol), solvent H3G (no benzyl alcohol), single determination, read-out: Azole solubility, [Drug] mg/mL
  solubility at 30 min: 30.6 mg/mL (≈ 43.7 mM)
[4]; solvent H3G (no benzyl alcohol), solvent H3G (no benzyl alcohol), read-out: Azole solubility, Average mg/mL
  solubility at 30 min: 32.2 mg/mL (≈ 45.9 mM)
[4]; solvent H3G (no benzyl alcohol), single determination
  Azole solubility, [Drug] mg/mL: 33.86 mg/mL and 32.04 mg/mL
[5]
  half-life: 360 to 420 min
